From US20090208620A1, “Alimentary Compositions and Methods For Metabolic Modulation” (VDF FUTURECEUTICALS, INC., priority 2003, published 2009)
Values joined by “and” are separate entries in the source; they are usually repeats but may differ in a detail not shown here. Equal values may be shown once. Blank lines part the entries; values can stand above or below the molecule they belong to.

Columns and labels:
[1] = Oral availability and serum level of DHZ by ELISA; assay type: in vivo, C57/B1 mice; conditions: 100 microgram/dose, mice; for concentration at 0 minutes / concentration at 15 minutes / concentration at 30 minutes / concentration at 60 minutes / concentration at 120 minutes: C57/B1, mouse, serum
Method: C57/B1 mice were treated with 100 microgram/dose of dihydrozeatin (DHZ) for 0, 15, 30, 60 and 120 minutes following oral or i.p. administration. Serum level of DHZ in pg/ml was measured using DHZ Elisa following procedures as enclosed in a commercially available test kit (e.g., dihydrozeatin competitive ELISA test system for plant growth hormone detection, Agdia, Elkhard, Ind.).

activated AMPK = test: Western immunoblot for activated (phospho-Thr172) AMPK in muscle cells; assay type: cell-based, mouse; conditions: cells treated 30 minutes at 37° C
Method: (§1) The levels of Glut-4, activated AMPK and activated Akt were measured in mouse muscle cells C2C12 (from ATTC) and in primary culture of human skeletal muscle cells (Clonetics, Inc.) using Western immunoblotting. C2C12 cells were plated at 1.5×1-exp5 cells per mL/well (12-well plate) in standard cell culture medium (DMEM supplemented with 10% fetal bovine serum (FBS), 25 mM glucose, 20 mM Hepes, 4 mM glutamine and 2 mM sodium pyruvate. 48 hrs after the plating, medium was changed to differentiation medium (DMEM supplemented with 5 mM of glucose and 0.5% of FBS) for next 3-4 days to stimulate the formation of myotubes. Three hours before the treatment with selected agents, cells were washed with PBS and transferred to PBS supplemented with 5 mM of glucose.
(§2) Human skeletal muscle cells (HSKM) were cultured in SKBM-2 mediums provided by Clonetics. 48 hrs after cell plating, medium was changed to SKBM medium to stimulate differentiation of the cells to myotubes. When differentiated, the myotubes were transferred to PBS supplemented with 5 mM glucose for three hrs before the treatment.
(§3) Analysis of C2C12 cells for the level of activated AMPK, Akt and the level of GLUT-4 was performed in the same experimental system. The cells were treated for 30 minutes at 37° C. […] Subsequently, 20 μg per sample of sample protein was used for Western analysis using NuPage 10% Bis/Tris gels (Invitrogen). After exposure of membranes to primary and secondary antibodies AMPK, AKT or Glut-4 was detected using ECL-Plus (Amersham) following producer's instruction. Chemilumiscent signals were detected by using ChemiDoc system from Biorad. Intensity of detected signals were analyzed and measured using Quantity One software (Biorad). Alternatively, the level of phosphorylated AMPK was detected using ECL kit from Amersham and short exposure to Kodak films.
(§4) Experimental setup: Cell Culture was followed by treatment with selected contemplated compounds, which was followed by cell lysis and western blot analysis for AMPK, Akt, GLUT4, total AMPK, and total Akt. Signals were acquired accordingly.

muscle cells = test: Total glucose uptake in vitro with fluorescent glucose analog; assay type: cell-based; conditions: for AVERAGE (N = 3) fluorescence of fluorescent glucose in the cells / FOLD CHANGE IN TOTAL GLUCOSE UPTAKE (OVER CONTROL): 30 minutes at 37 C
Method: Total glucose uptake was measured using fluorescent glucose analog from Molecular Probes. Briefly, muscle cells were treated with kinetin, N^2-Acetyl-Guanosine and N^2-Acetyl-Guanine for 30 minutes at 37 C first and subsequently, these cells were exposed to 500 μM of fluorescent glucose analog for 5 minutes at room temperature. Next, cells were washed twice with cold Krebs-Hepes buffered solution and fixed in 70% ethanol in water. Fluorescence of fluorescent glucose in the cells was measured using fluorescent plate reader at 480/530 nm (excitation/emission). […] Table 4 refers to multiple independent experiments where multiple identical concentrations for the same reagents are indicated.

[2] = tested on: rat epitrochlearis muscle; test: Glucose uptake in rat epitrochlearis muscle; assay type: cell-based; design: unit not given here; conditions: 60 minute incubation at 37 C, 10 minute transport at 30 C; for Glucose uptake, Raw: single values, listed as K
Method: Glucose uptake in rat epitrochlearis muscle was determined following a protocol substantially as described by Brozinick, J. T., and Birnbaum, M. J. (1998) J. Biol. Chem. 273(24), […]. Results are listed in Tables 5 and 6, wherein data of Table 5 were obtained for 60 minute incubations (at 37 C), 10 minute transport at (30 C) and data of Table 6 were obtained for 60 minute incubations (at 37 C), 10 minute transport at (30 C) of the compounds as indicated (K is kinetin, AG is N2-acetylguanine).

GLUT-4 = test: Western immunoblot for GLUT-4 protein level in C2C12 cells; assay type: cell-based, mouse
Method: as §1
Analysis of C2C12 cells for the level of activated AMPK, Akt and the level of GLUT-4 was performed in the same experimental system. The cells were treated for 30 minutes at 37° C. After the treatment, the cells were washed with ice-cold PBS and lysed with 80 μl of lysis buffer/well (M-PER buffer from Pierce supplemented with protease and phosphatase inhibitor mix (Calbiochem) for 10 minutes on ice. Next, the plates were transferred to −20° C. to improve the lysis of the cells. Next cells were sonicated for 5 minutes and lysate was transferred to Eppendorf tubes and centrifuged at 14,000 rpm for 10 minutes. Supernatants were collected in fresh Eppendorf tubes and kept on ice to measure the amount of total proteins. 3 μl of each lysate was used to measure the protein concentration using standard Bradford method (Biorad). Subsequently, 20 μg per sample of sample protein was used for Western analysis using NuPage 10% Bis/Tris gels (Invitrogen). After exposure of membranes to primary and secondary antibodies AMPK, AKT or Glut-4 was detected using ECL-Plus (Amersham) following producer's instruction. Chemilumiscent signals were detected by using ChemiDoc system from Biorad. Intensity of detected signals were analyzed and measured using Quantity One software (Biorad). Alternatively, the level of phosphorylated AMPK was detected using ECL kit from Amersham and short exposure to Kodak films.
Experimental setup: Cell Culture was followed by treatment with selected contemplated compounds, which was followed by cell lysis and western blot analysis for AMPK, Akt, GLUT4, total AMPK, and total Akt. Signals were acquired accordingly. Primary antibodies used in these studies are the following: Anti-phospho-AMPK (Thr172), mouse, rabbit IgG, from Cell Signaling, #2531; Anti-phospho-Akt (Ser473), mouse, rabbit IgG, Cell Signaling, #9271; Anti-Glut-4, mouse, rabbit IgG, Calbiochem, #400064; Anti-AMPK (total), mouse, rabbit IgG, Cell Signaling, #2532; Anti-Akt (total), mouse, rabbit IgG, Cell Signaling, #9272.
The effects of kinetin, N^2-Acetyl-Guanosine and N^2-Acetyl-Guanine on GLUT-4 protein level in C2C12 cells were investigated following the same experimental design as described for AMPK and AKT. Anti-Glut-4 antibody used in this study was from Calbiochem. […] Table 3 refers to multiple independent experiments where multiple identical concentrations for the same reagents are indicated.

activated Akt = test: Western immunoblot for activated (phospho-Ser473) Akt in muscle cells; assay type: cell-based, mouse; conditions: cells treated 30 minutes at 37° C
Method: as §1, §2, §3, §4

[3] = concentration 0.15 (unit not given)
[4] = concentration 0.3 (unit not given)
[5] = concentration 0.75 (unit not given)
[6] = concentration 1.5 (unit not given)
[7] = concentration 3.75 (unit not given)
[8] = concentration 7.5 (unit not given)

- concentration at 0 minutes ([1]; ip): 0.3 ng/mL
- concentration at 15 minutes ([1]; ip): 1.15 ng/mL
- concentration at 30 minutes ([1]; ip): 0.991 ng/mL
- concentration at 60 minutes ([1]; ip): 0.746 ng/mL
- concentration at 120 minutes ([1]; ip): 0.471 ng/mL
- concentration at 0 minutes ([1]; Oral): 0.3 ng/mL
- concentration at 15 minutes ([1]; Oral): 0.952 ng/mL
- concentration at 30 minutes ([1]; Oral): 1.02 ng/mL
- concentration at 60 minutes ([1]; Oral): 0.961 ng/mL
- concentration at 120 minutes ([1]; Oral): 0.853 ng/mL
- oral bioavailability (in words) [1]: readily bioavailable from the oral route
- time over which significant serum concentrations can be maintained [1]: at least 120 minutes
Compound: CC(CO)CCNc1ncnc2nc[nH]c12 (stereo not drawn) [Dihydro-Zeatin, dihydrozeatin]
- FOLD AMPK ACTIVATION (OVER CONTROL) (activated AMPK; 0.5 microM): 2.25 fold
- FOLD AMPK ACTIVATION (OVER CONTROL) (activated AMPK; 5.0 microM): 0.59 fold
- FOLD AMPK ACTIVATION (OVER CONTROL) (activated AMPK; 50.0 microM): 0.88 fold

Compound: c1coc(CNc2ncnc3[nH]cnc23)c1 [Kinetin, kinetin]
- effect on glucose uptake in muscle cells in vitro (in words) (muscle cells): potently enhance glucose uptake in muscle cells in vitro
- AVERAGE (N = 3) fluorescence of fluorescent glucose in the cells (muscle cells; [3]): 88.6 +/− 0.9
- FOLD CHANGE IN TOTAL GLUCOSE UPTAKE (OVER CONTROL) (muscle cells; [3]): 1.88 fold
- AVERAGE (N = 3) fluorescence of fluorescent glucose in the cells (muscle cells; [4]): 86.0 +/− 0.7
- FOLD CHANGE IN TOTAL GLUCOSE UPTAKE (OVER CONTROL) (muscle cells; [4]): 2.97 fold
- AVERAGE (N = 3) fluorescence of fluorescent glucose in the cells (muscle cells; [5]): 103.3 +/− 2.1
- FOLD CHANGE IN TOTAL GLUCOSE UPTAKE (OVER CONTROL) (muscle cells; [5]): 2.19 fold
- AVERAGE (N = 3) fluorescence of fluorescent glucose in the cells (muscle cells; [6]): 110.6 +/− 2.3
- FOLD CHANGE IN TOTAL GLUCOSE UPTAKE (OVER CONTROL) (muscle cells; [6]): 3.82 fold
- AVERAGE (N = 3) fluorescence of fluorescent glucose in the cells (muscle cells; [7]): 102.6 +/− 4.7
- FOLD CHANGE IN TOTAL GLUCOSE UPTAKE (OVER CONTROL) (muscle cells; [7]): 2.18 fold
- AVERAGE (N = 3) fluorescence of fluorescent glucose in the cells (muscle cells; [8]): 56.6 +/− 1.4
- FOLD CHANGE IN TOTAL GLUCOSE UPTAKE (OVER CONTROL) (muscle cells; [8]): 1.95 fold
- Glucose uptake, Mean ([2]; 0.5 uM): 0.99
- Glucose uptake, Mean ([2]; 1 uM (Table 6)): 1.23
- Glucose uptake, Raw ([2]; 1 uM (Table 6)): 1.54 and 0.95 and 1.33 and 1.10 and 1.23
- Glucose uptake, Mean ([2]; 2 uM): 0.70
- Glucose uptake, Raw ([2]; 2 uM): 0.57 and 0.90 and 0.64 and 0.81
- effect on GLUT-4 protein level (in words) (GLUT-4): potently increase GLUT-4 protein level
- FOLD CHANGE IN GLUT-4 LEVEL (OVER CONTROL) (GLUT-4; 0.3 microM): 3.45 fold and 3.95 fold
- FOLD CHANGE IN GLUT-4 LEVEL (OVER CONTROL) (GLUT-4; 0.8 microM): 3.46 fold and 2.36 fold
- FOLD CHANGE IN GLUT-4 LEVEL (OVER CONTROL) (GLUT-4; 0.9 microM): 4.00 fold
- FOLD CHANGE IN GLUT-4 LEVEL (OVER CONTROL) (GLUT-4; 2.0 microM): 1.88 fold
- FOLD CHANGE IN GLUT-4 LEVEL (OVER CONTROL) (GLUT-4; 2.7 microM): 3.88 fold
- FOLD CHANGE IN GLUT-4 LEVEL (OVER CONTROL) (GLUT-4; 8.1 microM): 1.11 fold
- FOLD AMPK ACTIVATION (OVER CONTROL) (activated AMPK; 0.1 microM): 5.30 fold
- FOLD AMPK ACTIVATION (OVER CONTROL) (activated AMPK; 0.3 microM): 8.12 fold
- FOLD AMPK ACTIVATION (OVER CONTROL) (activated AMPK; 0.8 microM): 3.60 fold and 2.40 fold
- FOLD AMPK ACTIVATION (OVER CONTROL) (activated AMPK; 1.0 microM): 19.50 fold
- FOLD AMPK ACTIVATION (OVER CONTROL) (activated AMPK; 2.0 microM): 2.70 fold
- FOLD AMPK ACTIVATION (OVER CONTROL) (activated AMPK; 3.0 microM): 14.50 fold
- FOLD AMPK ACTIVATION (OVER CONTROL) (activated AMPK; 10.0 microM): 12.80 fold
- FOLD AKT ACTIVATION (OVER CONTROL) (activated Akt; 0.3 microM): 5.08 fold
- FOLD AKT ACTIVATION (OVER CONTROL) (activated Akt; 0.8 microM): 3.17 fold
- FOLD AKT ACTIVATION (OVER CONTROL) (activated Akt; 0.9 microM): 3.81 fold
- FOLD AKT ACTIVATION (OVER CONTROL) (activated Akt; 2.0 microM): 3.35 fold
- FOLD AKT ACTIVATION (OVER CONTROL) (activated Akt; 2.7 microM): 3.21 fold
- FOLD AKT ACTIVATION (OVER CONTROL) (activated Akt; 5.0 microM): 2.07 fold
- FOLD AKT ACTIVATION (OVER CONTROL) (activated Akt; 8.1 microM): 0.24 fold
